# Results reported in patent US20060171971A1, “Composition for wet wipes containing a non-irritating skin health benefit ingredient and the process for making” (The Procter & Gamble Company, priority 2005, published 2006).
# Where “and” joins values, the source holds several entries; their conditions need not be identical. Identical values can stand only once.
# Assays:
# [1] = Lability method (Zincon metallochromic dye colour change); type: physicochemical; conditions: 30 mg/10 ml water, pH 7-9, Zincon dye
# Text: Particulate zinc materials differ with respect to how strongly the zinc ion (Zn^2+) is held by the counterion or counterions. […] To determine which particulate zinc materials provide labile Zn^2+, a test is developed using a metallochromic dye that changes color upon coordinating Zn 2+. The response is a binary visual assessment of whether or not the color changes, indicating zinc-binding.
# The method is based on the commercial metallochromic dye Zincon sodium salt (2-carboxy-2′-hydroxy-5′-sulfoformazyl-benzene sodium salt, such as Cat. No. 201332 available from Sigma-Aldrich, St. Louis, Mo.). Zincon changes from an orange to blue color upon binding zinc ion and provides the basis for detecting available Zn 2+. The specific procedure involves making a stock solution of Zincon in ethanol (50 mg/10 ml ethanol). The particulate zinc material is then added to water (30 mg/10 ml water) and agitated vigorously (pH should be 7-9). Three to four drops of Zincon solution are then added to the particulate zinc material in water, agitated, and a visual assessment of color change made.
# IL-1α = assay: Epiderm culture assay with quantification of IL-1α (test sample mixed with IIBM); type: cell-based, human; conditions: 16 hours
# Text: (§1) Epiderm Culture Assay With Quantification of IL-1α and Viability
# (§2) In order to evaluate the efficacy of the materials and embodiments of the present invention, a bio-engineered human skin construct is used to model the response of normal human epidermis. The EPIDERM™ skin model (as available from MatTek Corporation, Ashland, Mass.) is a three-dimensional, cornified, air-interfaced culture system. Each EPIDERM™ culture has multiple layers of progressively differentiated keratinocytes, closely resembling human epidermis. EPIDERM™ EPI-200-hydrocortisone-free (hereinafter EPI-200-HCF) cultures are used because these cultures show a strong inflammatory response to irritants. Cultures are incubated in medium that is also hydrocortisone-free (EPI-100-MM-HCF). All work with the cultures is carried out under sterile conditions in a biological safety cabinet.
# (§3) Experiments using the EPI-200-HCF cultures are conducted in six-well plates supplied with the cultures. Each well of the plate is filled with 900 microliters of pre-warmed EPI-100-MM-HCF medium, and then one EPI-200-HCF culture insert (shipped in 24-well format) is carefully transferred into the center of each well such that no air bubbles are trapped underneath the insert. After all of the culture inserts are transferred, the six-well plates are incubated in a 37° C., 5% CO2 tissue culture incubator for at least two hours.
# (§4) During the time the cultures are acclimating, the controls and test samples to be applied to the cultures are prepared. Sufficient material is prepared such that quadruplicate cultures can be dosed with about 100 microliters of the control or test sample. Throughout this section, the word “water” refers to autoclaved, Milli-Q water.
# (§5) For each experiment, three controls are run. The first control is water. The second control is a freshly-made solution of 0.125% Triton-X-100 in water, prepared by diluting the 1% Triton-X-100 stock solution shipped with the EPIDERM™ cultures. The third control is infant irritating bowel movement (hereinafter IIBM). IIBM is prepared as described in the PREPARATION OF INFANT […] method of the TEST METHODS section. At the time of use, the required number of tubes of IIBM are thawed at room temperature and 250 microliter aliquots are dispensed into 1.5 ml polypropylene microfuge tubes using a positive displacement pipettor. To each microfuge tube is then added 10 microliters of a 1 N NaOH solution to raise the pH and ensure activity of the fecal enzymes. For the IIBM control, an additional 250 microliters of water is added, and the tube is mixed thoroughly using a vortex mixer.
# (§6) For preparation of the test samples, a suspension in water of the material to be tested is first prepared. As an example, a 1% suspension of zinc oxide in water is prepared by weighing out 0.1 grams of zinc oxide into a 15 ml polypropylene tube (such as Cat No. 21008-935 from VWR) and adding sufficient water to bring the volume to 10 milliliters. Each suspension is vortexed thoroughly and allowed to sit for at least one hour at room temperature prior to use. To ascertain the irritancy of the test sample by itself, the neat suspension is applied to the EPIDERM™ culture. To ascertain the ability of the test sample to reduce the irritancy of IIBM, 250 microliters of the suspension is added to a microfuge tube already containing a 250 microliter aliquot of IIBM plus 10 microliters of 1 N NaOH (as prepared above). […]
# EPIDERM™ cultures = assay: Epiderm culture viability, MTT assay; type: cell-based, human; conditions: mixed with IIBM, 16 hours, normalized to water control
# Text: as §1, §2, §3, §4, §5, §6
compound,measurement,setting,value
"[O]=[Zn] [Zinc Oxide, zinc oxide]","available (labile) Zn2+, binary visual assessment of colour change",[1],having available Zn^2+
same,Mean % IL-1α Reduction,IL-1α; zinc oxide 31 mM (0.25% w/w),68%
same,Mean % IL-1α Reduction,IL-1α; zinc oxide 63 mM (0.5% w/w),76%
same,Mean % IL-1α Reduction,IL-1α; zinc oxide 125 mM (1.0% w/w),90%
same,Normalized EPIDERM Viability,EPIDERM™ cultures; zinc oxide 31 mM (0.25% w/w),95%
same,Normalized EPIDERM Viability,EPIDERM™ cultures; zinc oxide 63 mM (0.5% w/w),95%
same,Normalized EPIDERM Viability,EPIDERM™ cultures; zinc oxide 125 mM (1.0% w/w),96%
"O=S(=O)([O-])[O-].[Zn+2] [Zinc Sulfate, zinc sulfate]",Mean % IL-1α Reduction,IL-1α; zinc sulfate 87 mM (2.5% w/w),99% and 98%
same,Mean % IL-1α Reduction,IL-1α; zinc sulfate 174 mM (5.0% w/w),98% and 99%
same,Normalized EPIDERM Viability,EPIDERM™ cultures; zinc sulfate 87 mM (2.5% w/w),44% and 28%
same,Normalized EPIDERM Viability,EPIDERM™ cultures; zinc sulfate 174 mM (5.0% w/w),14% and 11%
O=C([O-])[O-].[Zn+2] [zinc carbonate],"available (labile) Zn2+, binary visual assessment of colour change",[1],having available Zn^2+
OCC(O)CO.[Zn] [zinc monoglycerolate],"available (labile) Zn2+, binary visual assessment of colour change",[1],having available Zn^2+
zinc stearate,"available (labile) Zn2+, binary visual assessment of colour change",[1],having available Zn^2+
